The source of these data is patent US9434743B2, “Indazole derivatives” (TAKEDA PHARMACEUTICAL COMPANY LIMITED, priority 2012, dated 2016).

Experiment [1] has as its target T1, human MetAP2 enzyme (Homo sapiens, UniProt P50579). Put plainly: MetAP2 enzyme assay, enzyme complexed with cobalt ions. The conditions noted are these: MetAP2 Co pIC50, MetAP2 enzyme complexed with cobalt ions; Met-AMC substrate at Km.
Experiment [2] deals with T1, human MetAP2 enzyme. Put plainly: MetAP2 enzyme assay, enzyme complexed with manganese ions. The conditions noted are these: MetAP2 Mn pIC50, MetAP2 enzyme complexed with manganese ions; Met-AMC substrate at Km.

T1 sequence (P50579 whole entry): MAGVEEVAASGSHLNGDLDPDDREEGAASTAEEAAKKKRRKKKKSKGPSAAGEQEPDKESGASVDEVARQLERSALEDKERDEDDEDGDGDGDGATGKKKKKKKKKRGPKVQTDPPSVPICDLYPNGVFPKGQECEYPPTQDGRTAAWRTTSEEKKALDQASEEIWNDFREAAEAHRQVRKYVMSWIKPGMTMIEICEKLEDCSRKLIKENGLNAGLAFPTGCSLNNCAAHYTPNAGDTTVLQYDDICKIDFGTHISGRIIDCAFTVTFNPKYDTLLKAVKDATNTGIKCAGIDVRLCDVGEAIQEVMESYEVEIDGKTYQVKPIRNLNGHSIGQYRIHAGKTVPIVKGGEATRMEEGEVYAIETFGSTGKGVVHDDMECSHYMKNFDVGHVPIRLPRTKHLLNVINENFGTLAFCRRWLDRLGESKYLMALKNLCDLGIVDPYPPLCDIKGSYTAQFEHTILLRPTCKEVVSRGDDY

Regarding `Cc1cc(Cn2nc(CO)c(-c3cc(C(F)(F)F)cc4[nH]ncc34)c2C)on1` (single isomer, unassigned) [Example 411, (5-methyl-1-((3-methylisoxazol-5-yl)methyl)-4-(6-(trifluoromethyl)-1H-indazol-4-yl)-1H-pyrazol-3-yl)methanol], the concentration for half-maximal inhibition (IC50) against human MetAP2 enzyme [1] is 6.31 nM; against human MetAP2 enzyme [2] it was 7.94 nM. In the same order, the values of `Cc1cc(Cn2nc(C)c(-c3cc(C(F)(F)F)cc4[nH]ncc34)c2CO)on1` (single isomer, unassigned) [Example 412, (3-methyl-1-((3-methylisoxazol-5-yl)methyl)-4-(6-(trifluoromethyl)-1H-indazol-4-yl)-1H-pyrazol-5-yl)methanol] are 15.8 nM and 3.98 nM. Turning to `FC(F)(F)c1cc(-c2cnc3c(c2)OCCN3)c2cn[nH]c2c1` [Example 4, 7-(6-(trifluoromethyl)-1H-indazol-4-yl)-3,4-dihydro-2H-pyrido[3,2-b][1,4]oxazine], the IC50 on human MetAP2 enzyme [1] was 25.1 nM; against human MetAP2 enzyme [2] it was 6.31 nM.

For the compound `NC(=O)c1ccc(-c2cc(C(F)(F)F)cc3[nH]ncc23)cc1` [Example 7, 4-(6-(trifluoromethyl)-1H-indazol-4-yl)benzamide], the IC50 against human MetAP2 enzyme [1] was 25.1 nM; on human MetAP2 enzyme [2] it was 5.01 nM.

Consider `OCc1cccc(-c2cc(C(F)(F)F)cc3[nH]ncc23)c1` [Example 8, (3-(6-(trifluoromethyl)-1H-indazol-4-yl)phenyl)methanol], for which the IC50 is 39.8 nM against human MetAP2 enzyme [1] and 3.16 nM against human MetAP2 enzyme [2]. The matching figures for `Nc1ncc(-c2cc(C(F)(F)F)cc3[nH]ncc23)cn1` [Example 9, 5-(6-(trifluoromethyl)-1H-indazol-4-yl)pyrimidin-2-amine]: 50.1 nM and 3.98 nM. In the same order, the values of `NC(=O)c1ccccc1-c1cc(C(F)(F)F)cc2[nH]ncc12` [Example 10, 2-(6-(trifluoromethyl)-1H-indazol-4-yl)benzamide] are 1260 nM and 31.6 nM. As for `OCc1ccc(-c2cc(C(F)(F)F)cc3[nH]ncc23)cc1` [Example 11, (4-(6-(trifluoromethyl)-1H-indazol-4-yl)phenyl)methanol], the half-maximal inhibitory concentration (IC50) was 31.6 nM on human MetAP2 enzyme [1] and 3.16 nM against human MetAP2 enzyme [2]. The matching figures for `OCc1ccccc1-c1cc(C(F)(F)F)cc2[nH]ncc12` [Example 12, (2-(6-(trifluoromethyl)-1H-indazol-4-yl)phenyl)methanol]: 39.8 nM and 3.16 nM. The matching figures for `FC(F)(F)c1cc(-c2cc[nH]n2)c2cn[nH]c2c1` [Example 13, 4-(1H-pyrazol-3-yl)-6-(trifluoromethyl)-1H-indazole]: 398 nM and 10 nM. In the same order, the values of `FC(F)(F)c1cc(-c2ccncc2)c2cn[nH]c2c1` [Example 14, 4-(pyridin-4-yl)-6-(trifluoromethyl)-1H-indazole] are 100 nM and 10 nM. Turning to `Cn1cc2c(-c3cc(C(F)(F)F)cc4[nH]ncc34)cccc2n1` [Example 15, 2′-methyl-6-(trifluoromethyl)-1H,2′H-4,4′-biindazole], the IC50 against human MetAP2 enzyme [1] was 10 nM; against human MetAP2 enzyme [2], 6.31 nM. In the same order, the values of `Nc1ccc(-c2cc(C(F)(F)F)cc3[nH]ncc23)cn1` [Example 16, 5-(6-(trifluoromethyl)-1H-indazol-4-yl)pyridin-2-amine] are 31.6 nM and 5.01 nM.

As to `FC(F)(F)c1cc(-c2ccc3[nH]cnc3c2)c2cn[nH]c2c1` [Example 17, 4-(1H-benzo[d]imidazol-5-yl)-6-(trifluoromethyl)-1H-indazole], the IC50 was 20 nM at human MetAP2 enzyme [1] and 7.94 nM against human MetAP2 enzyme [2].

For `NC(=O)c1cccc(-c2cc(C(F)(F)F)cc3[nH]ncc23)c1` [Example 18, 3-(6-(trifluoromethyl)-1H-indazol-4-yl)benzamide], the figures for the IC50 against human MetAP2 enzyme [1] and on human MetAP2 enzyme [2] were 25.1 nM and 3.16 nM, respectively. The matching figures for `FC(F)(F)c1cc(-c2cccnc2)c2cn[nH]c2c1` [Example 19, 4-(pyridin-3-yl)-6-(trifluoromethyl)-1H-indazole]: 63.1 nM and 3.16 nM.

For `Cc1n[nH]cc1-c1cc(C(F)(F)F)cc2[nH]ncc12` [Example 22, 4-(3-methyl-1H-pyrazol-4-yl)-6-(trifluoromethyl)-1H-indazole], the IC50 against human MetAP2 enzyme [1] is 39.8 nM; at human MetAP2 enzyme [2] it was 5.01 nM. Consider `FC(F)(F)c1cc(-c2cn[nH]c2)c2cn[nH]c2c1` [Example 23, 4-(1H-pyrazol-4-yl)-6-(trifluoromethyl)-1H-indazole], for which the IC50 is 100 nM against human MetAP2 enzyme [1] and 6.31 nM against human MetAP2 enzyme [2]. The matching figures for `Cn1ncc2ccc(-c3cc(C(F)(F)F)cc4[nH]ncc34)cc21` [Example 24, 1′-methyl-6-(trifluoromethyl)-1H,1′H-4,6′-biindazole]: 31.6 nM and 12.6 nM.

As for `NS(=O)(=O)c1ccc(-c2cc(C(F)(F)F)cc3[nH]ncc23)cc1` [Example 25, 4-(6-(trifluoromethyl)-1H-indazol-4-yl)benzenesulfonamide], the IC50 on human MetAP2 enzyme [1] was 50.1 nM; at human MetAP2 enzyme [2], 7.94 nM. In the same order, the values of `FC(F)(F)c1cc(-c2ccc3ccncc3c2)c2cn[nH]c2c1` [Example 26, 7-(6-(trifluoromethyl)-1H-indazol-4-yl)isoquinoline] are 63.1 nM and 12.6 nM. The matching figures for `FC(F)(F)c1cc(-c2cccc3c2OCO3)c2cn[nH]c2c1` [Example 27, 4-(benzo[d][1,3]dioxol-4-yl)-6-(trifluoromethyl)-1H-indazole]: 126 nM and 15.8 nM. Turning to `CC(C)CNC(=O)c1cccc(-c2cc(C(F)(F)F)cc3[nH]ncc23)c1` [Example 28, N-isobutyl-3-(6-(trifluoromethyl)-1H-indazol-4-yl)benzamide], the IC50 on human MetAP2 enzyme [1] was 158 nM; against human MetAP2 enzyme [2] it was 25.1 nM. In the same order, the values of `OCc1cncc(-c2cc(C(F)(F)F)cc3[nH]ncc23)c1` [Example 29, (5-(6-(trifluoromethyl)-1H-indazol-4-yl)pyridin-3-yl)methanol] are 79.4 nM and 6.31 nM. The matching figures for `COc1ccncc1-c1cc(C(F)(F)F)cc2[nH]ncc12` [Example 30, 4-(4-methoxypyridin-3-yl)-6-(trifluoromethyl)-1H-indazole]: 79.4 nM and 25.1 nM. In the same order, the values of `FC(F)(F)c1cc(-c2cccc3cccnc23)c2cn[nH]c2c1` [Example 31, 8-(6-(trifluoromethyl)-1H-indazol-4-yl)quinoline] are 200 nM and 15.8 nM. Turning to `CCN(CC)C(=O)c1cccc(-c2cc(C(F)(F)F)cc3[nH]ncc23)c1` [Example 32, N,N-diethyl-3-(6-(trifluoromethyl)-1H-indazol-4-yl)benzamide], the IC50 against human MetAP2 enzyme [1] is 39.8 nM; against human MetAP2 enzyme [2] it was 20 nM. As to `N#Cc1cccc(-c2cc(C(F)(F)F)cc3[nH]ncc23)c1` [Example 33, 3-(6-(trifluoromethyl)-1H-indazol-4-yl)benzonitrile], the IC50 at human MetAP2 enzyme [1] was 100 nM; against human MetAP2 enzyme [2], 10 nM. The matching figures for `O=C(NCc1ccccc1)c1cccc(-c2cc(C(F)(F)F)cc3[nH]ncc23)c1` [Example 34, N-benzyl-3-(6-(trifluoromethyl)-1H-indazol-4-yl)benzamide]: 316 nM and 31.6 nM. In the same order, the values of `O=C(NC1CC1)c1ccc(-c2cc(C(F)(F)F)cc3[nH]ncc23)cc1` [Example 35, N-cyclopropyl-4-(6-(trifluoromethyl)-1H-indazol-4-yl)benzamide] are 25.1 nM and 7.94 nM. Turning to `Cn1ncc2cc(-c3cc(C(F)(F)F)cc4[nH]ncc34)ccc21` [Example 36, 1′-methyl-6-(trifluoromethyl)-1H,1′H-4,5′-biindazole], the IC50 was 25.1 nM against human MetAP2 enzyme [1] and 6.31 nM against human MetAP2 enzyme [2]. With `Cc1nnc(-c2cccc(-c3cc(C(F)(F)F)cc4[nH]ncc34)c2)o1` [Example 37, 2-methyl-5-(3-(6-(trifluoromethyl)-1H-indazol-4-yl)phenyl)-1,3,4-oxadiazole], the 50% inhibitory concentration (IC50) against human MetAP2 enzyme [1] was 39.8 nM; on human MetAP2 enzyme [2] it was 7.94 nM. In the same order, the values of `NC(=O)Cc1cccc(-c2cc(C(F)(F)F)cc3[nH]ncc23)c1` [Example 38, 2-(3-(6-(trifluoromethyl)-1H-indazol-4-yl)phenyl)acetamide] are 50.1 nM and 10 nM.

`Cc1nn(C)cc1-c1cc(C(F)(F)F)cc2[nH]ncc12` [Example 39, 4-(1,3-dimethyl-1H-pyrazol-4-yl)-6-(trifluoromethyl)-1H-indazole]: the results for the IC50 against human MetAP2 enzyme [1] and against human MetAP2 enzyme [2] were 31.6 nM and 12.6 nM, respectively.

On to `Cc1nc(C)c(-c2cc(C(F)(F)F)cc3[nH]ncc23)s1` [Example 40, 2,4-dimethyl-5-(6-(trifluoromethyl)-1H-indazol-4-yl)thiazole], for which the IC50 at human MetAP2 enzyme [1] was 39.8 nM; against human MetAP2 enzyme [2], 10 nM. As to `FC(F)(F)c1cc(-c2cnn3ccccc23)c2cn[nH]c2c1` [Example 41, 4-(pyrazolo[1,5-a]pyridin-3-yl)-6-(trifluoromethyl)-1H-indazole], the figures for the IC50 against human MetAP2 enzyme [1] and against human MetAP2 enzyme [2] were 25.1 nM and 6.31 nM, respectively.

Consider `Cc1nn(C)c2cc(-c3cc(C(F)(F)F)cc4[nH]ncc34)ccc12` [Example 67, 1′,3′-dimethyl-6-(trifluoromethyl)-1H,1′H-4,6′-biindazole], for which, on human MetAP2 enzyme [1], inhibition was half-maximal at 20 nM (IC50). The same measure, in the same setting: to `Cc1nn(C)c2cc(-c3cc(C(F)(F)F)cc4[nH]ncc34)ccc12` [Example 68, 1′,3′-dimethyl-6-(trifluoromethyl)-1H,1′H-4,6′-biindazole] belongs 25.1 nM. In turn, `Cc1c(-c2cc(C(F)(F)F)cc3[nH]ncc23)cnn1-c1ccccc1` [Example 70, 4-(5-methyl-1-phenyl-1H-pyrazol-4-yl)-6-(trifluoromethyl)-1H-indazole] gave an IC50 against human MetAP2 enzyme [1] of 39.8 nM. `Cc1c(-c2cc(C(F)(F)F)cc3[nH]ncc23)cnn1-c1ccccc1` [Example 71, 4-(5-methyl-1-phenyl-1H-pyrazol-4-yl)-6-(trifluoromethyl)-1H-indazole]: 100 nM corresponded to half-maximal inhibition on human MetAP2 enzyme [1] (IC50).
